Data from patent US9238632B2, “3-cyanoanilinoalkylarylpiperazine derivative and use thereof in preparing drugs” (NHWA Pharma. Corporation, priority 2012, dated 2016).
Where a name gives a salt, the structure may show the parent alone.

Key:
5-HT1A receptor = biological target: T1, 5-HT1A receptor (Rattus norvegicus, UniProt P19327); assay: In vitro competitive binding test to 5-HT1A receptor ([3H]-8-OH-DPAT, rat cerebral cortex membranes); conditions: 10 μmol/L compound; hydrochloride salts; rat cerebral cortex membrane; unit (I %); read-out: 5-HT1A affinity [3H]-8-OH-DPAT (inhibition rate of radioligand binding)
T1 construct: The supernatant is discarded and the precipitate (membrane receptor) is stocked; from tissue; host or cells: SD rat cerebral cortex membranes
T1 sequence (P19327 1-422): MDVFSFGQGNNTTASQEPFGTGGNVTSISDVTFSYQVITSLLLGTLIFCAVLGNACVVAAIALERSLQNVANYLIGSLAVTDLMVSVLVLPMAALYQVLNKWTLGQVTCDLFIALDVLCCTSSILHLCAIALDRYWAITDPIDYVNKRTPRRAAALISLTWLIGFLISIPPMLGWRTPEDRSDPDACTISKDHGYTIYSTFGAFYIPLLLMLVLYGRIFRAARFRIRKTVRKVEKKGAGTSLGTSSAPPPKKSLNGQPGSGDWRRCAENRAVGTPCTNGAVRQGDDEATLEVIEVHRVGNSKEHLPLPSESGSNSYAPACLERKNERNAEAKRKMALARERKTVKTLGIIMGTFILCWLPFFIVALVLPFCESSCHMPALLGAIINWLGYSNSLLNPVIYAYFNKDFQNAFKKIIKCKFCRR
Method: (§1) Animals: clean grade SD rats, female and male, 250-300 g, purchased from Nanjing QingLongshan animal breeding center.
(§2) Radioligand: [^3H]-8-OH-DPAT, [^3H]-Ketanserin, purchased from PerkinElmer company; 5-HT and Methysergide, purchased from Sigma company.
Preparation of 5-HT1A buffer solution: Tris-HCl buffer solution (0.05M, 1000 ml) is added with certain amount of ascorbic acid, pargyline and CaCl2, to give final concentrations of 0.1%(ascorbic acid), 10 um (pargyline) and 4 mM (CaCl2) separately.
(§3) Preparation of radioligand: 50 μl mother liquor is diluted to 5 ml with anhydrous ethanol, and stocked for use.
(§4) Preparation of non-labeling ligand: appropriate amounts of 5-HT and Methysergide are dissolved in ultrapure water to give solutions with final concentrations of 2*10^−5M respectively.
(§5) Preparation of solutions of various test drugs: appropriate amount of each drug is first diluted to 1 ml with ultrapure water as stock solution. When needed, 10 μl of the stock solution is diluted to 1 ml to reach a level of 10^−5M.
(§6) Rats are decapitated to get the brains. The target tissues (left and right cerebral cortex) are separated on ice, added with 10-fold volume (V/W) of ice-cold buffer, and homogenized with tissue Homogenizer for several seconds 3 times to form tissue homogenate. The tissue homogenate is centrifuged with low temperature superb centrifuge (12000 r/min) 3 times, with each for 20 minutes. The supernatant is discarded and the precipitate (membrane receptor) is stocked in −80° C. ultralow temperature freezer.
(§7) The membrane receptor is added with certain volume of ice-cold buffer and homogenized to make membrane receptor solutions at certain concentrations.
(§8) Various reaction solutions are added in the following sequences and ratios:
(§9) Total binding tube: 100 μl membrane receptor+100 μl buffer+10 μl radioligand
(§10) Non-specific tube: 100 μl membrane receptor+100 μl non-labeling ligand+10 μl radioligand
(§11) Test compound tube: 100 μl membrane receptor+100 μl drug solution+10 μl radioligand
(§12) Above tubes are put in 37° C. water bath immediately after finishing adding radioligand into each of them and then incubated for 25 min. After 25 min, the tubes are put in ice water to quench the reaction. Each tube is poured into suction filtration device to filter, and the filter membrane is washed with 5-10 ml ice-cold buffer twice. The filter membrane is dried in 85° C. oven, and then put into test tubes, and added with certain amount of scintillation liquid to soak overnight. Radioactivity is determined using liquid scintillation counter.
(§13) Each compound is tested in duplicate, and the tests are carried out independently twice.

5-HT2A receptor = biological target: T2, 5-HT2A receptor (Rattus norvegicus, UniProt P14842); assay: In vitro competitive binding test to 5-HT2A receptor ([3H]-Ketanserin, rat cerebral cortex membranes); conditions: 10 μmol/L compound; hydrochloride salts; rat cerebral cortex membrane; unit (I %); read-out: 5-HT2A affinity [3H]-Ketanserin (inhibition rate of radioligand binding)
T2 construct: The supernatant is discarded and the precipitate (membrane receptor) is stocked; from tissue; host or cells: SD rat cerebral cortex membranes
T2 sequence (P14842 whole entry): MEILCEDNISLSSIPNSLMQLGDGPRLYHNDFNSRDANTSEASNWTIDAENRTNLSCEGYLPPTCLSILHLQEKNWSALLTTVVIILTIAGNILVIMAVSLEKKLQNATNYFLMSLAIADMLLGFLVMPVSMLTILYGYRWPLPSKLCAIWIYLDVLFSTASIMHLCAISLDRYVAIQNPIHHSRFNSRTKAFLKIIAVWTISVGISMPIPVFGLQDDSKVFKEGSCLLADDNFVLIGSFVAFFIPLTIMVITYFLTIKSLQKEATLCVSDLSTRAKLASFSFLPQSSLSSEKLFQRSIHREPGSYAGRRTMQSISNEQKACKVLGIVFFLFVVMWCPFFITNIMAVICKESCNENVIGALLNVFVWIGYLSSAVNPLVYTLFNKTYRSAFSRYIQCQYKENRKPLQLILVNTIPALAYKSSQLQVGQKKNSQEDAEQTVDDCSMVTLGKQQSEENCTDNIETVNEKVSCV
Method: as §1, §2
Preparation of 5-HT2A buffer solution: Tris (6.05 g) is dissolved in ultrapure water (1000 ml). PH is adjusted to 7.4 with HCl. Tris-HCl buffer solution (0.05M) is used.
as §3, §4, §5, §6, §7, §8, §9, §10, §11, §12, §13

hSERT = hSERT (Homo sapiens, UniProt P31645); assay: In vitro inhibition of serotonin reuptake ([3H]-5-HT) in cells stably expressing hSERT; conditions: for inhibition at 10 µM: read-out: Inhibition rates of SERT reuptake [3H]-5-HT
Chain of hSERT (P31645 whole entry): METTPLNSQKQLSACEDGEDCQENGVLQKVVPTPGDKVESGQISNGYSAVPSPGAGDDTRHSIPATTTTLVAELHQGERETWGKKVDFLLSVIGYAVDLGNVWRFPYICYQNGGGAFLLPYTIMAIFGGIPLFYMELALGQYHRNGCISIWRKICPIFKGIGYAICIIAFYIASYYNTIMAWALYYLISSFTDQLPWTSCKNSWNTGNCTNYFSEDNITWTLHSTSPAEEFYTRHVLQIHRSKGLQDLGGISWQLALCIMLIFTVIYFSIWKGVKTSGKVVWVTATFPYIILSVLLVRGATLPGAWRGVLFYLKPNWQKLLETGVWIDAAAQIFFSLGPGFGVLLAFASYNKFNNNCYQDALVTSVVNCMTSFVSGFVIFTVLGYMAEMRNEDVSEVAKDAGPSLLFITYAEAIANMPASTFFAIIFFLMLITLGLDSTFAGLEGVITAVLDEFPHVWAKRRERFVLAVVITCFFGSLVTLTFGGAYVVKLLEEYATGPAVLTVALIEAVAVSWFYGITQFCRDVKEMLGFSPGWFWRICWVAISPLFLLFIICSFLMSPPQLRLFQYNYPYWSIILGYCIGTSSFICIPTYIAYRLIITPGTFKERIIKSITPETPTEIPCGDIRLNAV
Method: Positive control compound: fluoxetine.
Sample treatment: about 1 mg of compound is weighted and added with relative amount of DMSO to prepare 10^−2M stock solution. Before use, the stock solution is diluted with HBSS buffer to relative concentrations. Each sample is dissolved in DMSO completely. The dilution is clear and without obvious cloudy and formation of precipitate after adding with buffer.
(1) Cells which can stably express hSERT are seeded into 24-well plates respectively.
(2) Experiments are started when the cell confluence reaches 80-90%.
(3) Liquids in the plates are discarded, the plates are washed with PBS twice at room temperature.
(5) Plates are incubated at 37° C. for 10 min after slight oscillation.
(6) Then 20 μl radioisotope is added (cpm: about 20000).
(7) Plates are incubated at 37° C. for 5 min after slight oscillation.
(8) Liquids in the plates are discarded, the plates are washed with ice-cold PBS twice, all the liquids in the plates are removed away.
(9) NaOH (2M, 100 μl) is added into each well to lyse the cells. All the lysates are combined and put on GF/C glass fiber filter paper.
(10) The filter papers are dried and put in 0.5 ml centrifuge tube, 500 μl lipid soluble scintillation liquid are added. Radioactivity is determined by MicroBeta liquid scintillation counter. Each concentration is tested intriplicate, and tests are carried out independently twice.
Test concentration is 10 μmol/L. The positive drug provided is set as control (10 μmol/L) in each experiment. The experimental processes are the same as the above process.

[1] = system: mice tail suspension test; assay: Mice tail suspension test (immobility time); format: in vivo, KM mice; conditions: 40 mg/kg intragastric, 1 h post dose, last 4 min of 6 min, n=10, mean ± SD
Method: Control drug: duloxetine hydrochloride, fluoxetine hydrochloride
A few days before the experiment, mice with qualified body weight are selected and divided into groups. The experiments are carried out in 2 days. In D1, mice are put on bar of tail suspension instrument for 6 min, the immobility time of the last 4 min are recorded. […] Blank control group, positive control group and each test compound group are set.
The mean values of immobility time for each group are calculated, the results are expressed as “mean±standard deviation”.

[2] = system: rat formalin induced pain model; assay: Rat formalin induced pain model (leg-raising times); format: in vivo, SD rats; conditions: 100 mg/kg intragastric, formalin 1 h later; Mean ± SD, n=10
Excerpt: Rat formalin induced pain model is used to test in vivo analgesic effect of hydrochloride of compound III-10.
Rat formalin induced pain model is established by Dubuisson and Dennis in 1977. It can simulate some characteristics of human pains after damages, and its persistent tension pain is similar to common clinical chronic pains. Its experimental results have excellent repeatability, and it is considered to be universally accepted pain model which is more reliable than short-term mechanical or thermal stimulation models. It has been generally used in investigation and determination of pain mechanism, pain physiology and pharmacology, screening of the analgesic effects of drugs and evaluation of analgesic drugs.
Test compounds are prepared to relevant doses with 0.5% CMC-Na before use.
Formaldehyde solution: batch number HN20041109, HuaDong reagent industrial company. In experiment, it is diluted to 5% formaldehyde solution with 0.9% sodium chloride injection.
90 SD rats of weight (240-350 g), half female and half male, are fed for I week to adapt the environment, with 5 in each cage during feeding, the rats are fed under standard condition during experiments with free access to water and food.
90 SD rats of weight 240-350 g are randomly divided into 9 groups which are negative control group, model group, gabapentin group, high, median and low dosage group of each compound respectively, with 10 rats in each group, half female and half male. Relevant test compounds are given by intragastric administration, and 5% formalin (50 ul) is subcutaneously injected at the left rear foot in 1 h to model, formation of pichu indicates a successful modeling. 0.5% (weight percentage) CMC-Na is given by intragastric administration in negative control group, and normal saline (50 ul) is subcutaneously injected at the bottom of right rear foot in 1 h. After modeling, the leg-raising times in 1-2 minutes and 5-6 minutes are observed. The time period 10-60 minutes are divided into 5 minutes intervals, and the leg-raising times of the first minute of each interval (10-11, 15-16, 20-21, 25-26, 30-31, 35-36, 40-41, 45-46, 50-51, 55-56, 60-61) are observed.
Measuring index is expressed as mean±standard deviation (Mean±SD), comparison is analyzed with One-way ANOVA.

[3] = Acute toxicity study, single drench to mice (LD50, Bliss method); conditions: mouse, in vivo, oral, hydrochloride
Excerpt: Bliss method is used for statistics.

[4] = system: Salmonella typhimurium histidine auxotrophic mutants TA97, TA98, TA100 and TA102; assay: Bacterial reverse mutation test (Ames test); conditions: −S9 and +S9, all dosages
Method: Strains: Salmonella typhimurium histidine auxotrophic mutants TA97, TA98, TA100 and TA102.
Results: the experiments include two parts of −S9 and +S9. In the test system without S9, TA98 5000 μg/dish has antibacterial activity, and in the test system with S9, TA97 5000 μg/dish has antibacterial activity. Other dosages have no antibacterial activity to any of the strains, and the growth background is excellent. […] Ames test is negative.

Row | Structure (SMILES) | inhibition at 10 µM (5-HT1A receptor) [%] | inhibition at 10 µM (5-HT2A receptor) [%] | inhibition at 10 µM (hSERT) [%] | also measured
1 | COc1ccccc1N1CCN(CCN(C)c2cccc(C#N)c2)CC1 [III-1, 3-((2-(4-(2-methoxyphenyl)piperazin-1-yl)ethyl)methylamino)benzonitrile] | 154 | 98.9 | 97.3 | –
2 | Cc1cccc(N2CCN(CCCN(C)c3cccc(C#N)c3)CC2)c1C [III-11, 3-((3-(4-(2,3-dimethylphenyl)piperazin-1-yl)propyl)methylamino)benzonitrile] | 102 | 145 | 96.6 | –
3 | CCN(CCCN1CCN(c2ccccc2OC)CC1)c1cccc(C#N)c1 [III-14, 3-((3-(4-(2-methoxyphenyl)piperazin-1-yl)propyl)ethylamino)benzonitrile] | 112 | 135 | 98.2 | –
4 | CN(CCN1CCN(c2cccc(C(F)(F)F)c2)CC1)c1cccc(C#N)c1 [III-2, 3-(methyl(2-(4-(3-trifluoromethylphenyl)piperazin-1-yl)ethyl)amino)benzonitrile] | 119 | 131 | 97.8 | –
5 | CNCC[C@H](Oc1cccc2ccccc12)c1cccs1 [dutoxetine, duloxetine hydrochloride] | – | – | – | Immobility time ([1]; hydrochloride): 28.2 ± 27.3 S; Immobility time ([1]; listed as dutoxetine hydrochloride, hydrochloride): significantly decreased immobility time
6 | CNCCC(Oc1ccc(C(F)(F)F)cc1)c1ccccc1 (stereo not shown) [fluoxetine] | – | – | – | Immobility time [1]: 69.9 ± 27.4 S; Immobility time ([1]; listed as fluoxetine hydrochloride): significantly decreased immobility time
7 | COc1cncnc1N1CCN(CCN(C)c2cccc(C#N)c2)CC1 [III-7] | 83.2 | 101 | 81.7 | –
8 | CN(CCN1CCN(c2cccc(Cl)c2)CC1)c1cccc(C#N)c1 [III-3, 3-((2-(4-(3-chlorophenyl)piperazin-1-yl)ethyl)methylamino)benzonitrile] | 155 | 107 | 98.3 | –
9 | COc1ccccc1N1CCN(CCCN(C)c2cccc(C#N)c2)CC1 [III-9, 3-((3-(4-(2-methoxyphenyl)piperazin-1-yl)propyl)methylamino)benzonitrile] | 125 | 154 | 104 | –
10 | COc1c(Cl)ncnc1N1CCN(CCN(C)c2cccc(C#N)c2)CC1 [III-6, 3-((2-(4-(6-chloro-5-methoxylpyrimidin-1-yl)piperazin-1-yl)ethyl)methylamino)benzonitrile] | 91.6 | 84.5 | 98.3 | –
11 | NCC1(CC(=O)O)CCCCC1 [Gabapentin, gabapentin, reference compound] | – | – | – | phase I times (leg-raising times) [2]: 11.60 ± 6.75 time; phase II times (leg-raising times) [2]: 74.7 ± 39.45 time
12 | CN(CCCN1CCN(c2cccc(C(F)(F)F)c2)CC1)c1cccc(C#N)c1 [III-8, 3-(methyl(3-(4-(3-trifluoromethylphenyl)piperazin-1-yl)propyl)amino)benzonitrile] | 108 | 111 | 98.3 | LD50 [3]: 1800 mg/kg; Ames test (colony reverse mutations) [4]: negative; IC50 (hSERT): 246 ± 94 nM; inhibition effect to 5-HT reuptake compared with fluoxetine (hSERT): comparable to that of fluoxetine
13 | CN(CCN1CCN(c2cccc(Cl)c2Cl)CC1)c1cccc(C#N)c1 [III-4, 3-((2-(4-(2,3-dichlorophenyl)piperazin-1-yl)ethyl)methylamino)benzonitrile] | 126 | 104 | 93.4 | –
14 | COc1cncnc1N1CCN(CCCN(C)c2cccc(C#N)c2)CC1 [III-12] | 114 | 132 | 94.4 | –
15 | Cc1cccc(N2CCN(CCN(C)c3cccc(C#N)c3)CC2)c1C [III-5, 3-((2-(4-(2,3-dimethylphenyl)piperazin-1-yl)ethyl)methylamino)benzonitrile] | 121 | 134 | 99.7 | –
16 | CN(CCCN1CCN(c2cccc(Cl)c2Cl)CC1)c1cccc(C#N)c1 [III-13, 3-((3-(4-(2,3-dichlorophenyl)piperazin-1-yl)propyl)methylamino)benzonitrile] | 119 | 149 | 86.9 | –
